Measured values as given in patent publication US20260256740A1, “PHARMACEUTICAL COMPOSITION COMPRISING CYCLOHEX-2-ENYLIDENE / 3,3-DIMETHYLINDOLINE COMPOUNDS; METHODS OF TREATING HUMAN DISEASES; AND METHODS OF INDUCING A CALCIUM SENSITIZING EFFECT IN A SUBJECT” (Curadel Surgical Innovations, Inc., priority 2022, published 2026).

Tested on: plasma membrane of living cells
Test: NIR cellular microscopy of living cells
Format: cell-based
Excerpt: Without being limited by theory, PanLN and PanLN-forte are believed unlikely to directly bind myofilaments.

Compound | crossing of the plasma membrane of living cells
CC1(C)C(/C=C/C2=C(Oc3ccc(CCC(=O)O)cc3)C(=C/C=C3/N(CCC[N+](C)(C)C)c4ccccc4C3(C)C)/CCC2)=[N+](CCC[N+](C)(C)C)c2ccccc21 [PanLN, 2-((E)-2-((E)-2-(4-(2-carboxyethyl)phenoxy)-3-((E)-2-(3,3-dimethyl-1-(3-(trimethylammonio)propyl)indolin-2-ylidene)ethylidene)cyclohex-1-enyl)vinyl)-3,3-dimethyl-1-(3-(trimethylammonio)propyl)-3H-indolium] | does not appear to cross the plasma membrane
CC1(C)C(/C=C/C2=C(c3ccc(CCC(=O)O)cc3)C(=C/C=C3/N(CCC[N+](C)(C)C)c4ccccc4C3(C)C)/CCC2)=[N+](CCC[N+](C)(C)C)c2ccccc21 [PanLN-fort, 2-((E)-2-((E)-2-(4-(2-carboxyethyl)phenyl)-3-((E)-2-(3,3-dimethyl-1-(3-(trimethylammonio)propyl)indolin-2-ylidene)ethylidene)cyclohex-1-enyl)vinyl)-3,3-dimethyl-1-(3-(trimethylammonio)propyl)-3H-indolium] | does not appear to cross the plasma membrane
